In the experiment the test system is NADPH oxidase. The experiment can be described thus: NADPH-oxidase activity in pollution-exposed fibroblasts (Example 6). In kind it is cell-based, human. Here is the method: Method: Cells are incubated for 30 minutes with the test elements (either pollutant or Composition A). NADPH oxidase activity is determined immediately using chemioluminescence. Conditions: Untreated and unexposed to pollution, Untreated and exposed to pollution and Treated with personal care composition and exposed to pollution. As a comparison to the personal care composition, niacinamide was tested at low concentration (“niacinamide (low)”) and high concentration (“niacinamide (high)”) in DMSO. (The high niacinamide concentration was 6.67 times the low niacinamide concentration.) Composition B was diluted until its niacinamide concentration was the same as the niacinamide (low) concentration. The cells used in the study were human primary fibroblasts originating from a healthy donor. As in Example 5, the pollutant was urban standardized particles composed with metals, polyaromatic hydrocarbons (PAHs), nitro-PAHs, PCBs, chlorinated pesticide, etc., of micrometric diameter. NADPH-oxidase activity and mitochondrial associated membranes (MAMs) were experimentally determined and quantified in the same manner as in Example 5.

niacinamide: the “NADPH oxidase activity relative to NE-NTC” value was “level below that observed in NE-NTC” (niacinamide (high) concentration, 6.67 times the low) and “level similar to that observed in the NE-NTC” (niacinamide (low) concentration, Composition B diluted to the same niacinamide concentration).

Values taken from patent publication US20250032388A1, “PERSONAL CARE COMPOSITIONS FOR SENSITIVE SKIN AND METHODS OF USE” (Galderma Holding SA, priority 2022, published 2025).
